Data: patent US7524866B2, “Prevention and treatment of androgen—deprivation induced osteoporosis” (GTx, Inc., priority 2001, dated 2009)

Columns and labels:
[1] = system: orchidectomized rats (ORX); assay: Three point bending test of the femoral shaft (Example 4); format: in vivo, rat; conditions: 12 weeks, mean
Description: (§1) Eight month-old male Sprague Dawley rats were either sham-operated (SHAM) or orchidectomized (ORX). Treatment began immediately following surgery. The treatment groups were as described in Table 5. Bone strength was evaluated using a compression test at the vertebral body, a three point bending test at the femoral shaft, a compression test at the distal femur and a cantilever compression test of the femoral neck. Prior to mechanical testing, all samples were thawed in cold saline and carefully cleaned of any remaining adherent soft tissue.

[2] = system: orchidectomized rats (ORX); assay: Cantilever compression test of the femoral neck (Example 4); format: in vivo, rat; conditions: 12 weeks, mean
Description: as §1

[3] = system: orchidectomized rats (ORX); assay: Static and dynamic bone histomorphometry of the proximal tibia (Example 4); format: in vivo, rat; conditions: for loss of trabecular bone volume at the proximal tibia: 10 mg/kg/d Tor; for loss of trabecular bone volume at the proximal tibia / Orx-induced increase in bone turnover parameters at the proximal tibia: E 0.2 mg/kg/d; for Orx-induced increase in bone turnover parameters at the proximal tibia: Tor 5 and 10 mg/kg/d, p<0.05 vs. Orx+vehicle; for Bone Form Rate, Bone Volume Ref / Bone Form. Rate, Bone Surface Ref / Bone Formation Rate, Tissue Volume Ref / Mineral Apposition Rate / Mineralizing Surface / Osteoclast Number/Bone Surface / Osteoclast Surface / Trabecular Bone Volume / Trabecular Number / Trabecular Separation / Trabecular Thickness: proximal tibia, 6 wks, mean
Description: (§2) Eight month-old male Sprague Dawley rats were either sham-operated (SHAM) or orchidectomized (ORX). Treatment began immediately following surgery. The treatment groups were as described in Table 5.
Animals were given calcein (intraperitoneally) 12 and 2 days prior to sacrifice. Femurs and lumbar vertebra (L5) were preserved frozen wrapped in saline-soaked gauze. Tibiae and lumbar vertebrae (L4) were preserved in 10% formalin for 48 hours, then transferred to 70% ethanol for long-term storage.
Histology and Static and Dynamic Bone Histomorphometry: Approximately 1.1 cm of the proximal tibia was cut away and the frontal face was trimmed with a low-speed diamond wheel saw to expose the marrow cavity. The L4 lumbar vertebral body was prepared from the lumbar vertebra by trimming off the processes with a slow-speed diamond saw. Each proximal tibia and lumbar vertebral body was dehydrated in a series of ascending ethanol (EtOH) concentrations. Following dehydration, the bone samples were infiltrated and then embedded in a methyl methacrylate-dibutyl phthalate plastic composite. Embedded samples of the proximal tibiae were sectioned using a Leitz motorized rotary microtome equipped with a tungsten-carbide microtome knife. Once the blocks had been trimmed and faced to the sampling site, a 4-micron section was stained with Goldner's trichrome stain for bright field microscopy and an 8-micron section was left unstained for epifluorescent microscopy. Embedded lumbar vertebral body samples were also sectioned using a Leitz motorized rotary microtome equipped with a tungsten-carbide microtome knife. Once the blocks had been trimmed and faced to the sampling site, a 4-micron section was stained with Goldner's trichrome stain for bright field microscopy and an 8-micron section was left unstained for epifluorescent microscopy.
The cancellous bone in the secondary spongiosa of the proximal tibia was evaluated in a region of interest (ROI) that was 1.0 mm distal to the lowest point of the growth plate in a rectilinear region of 3×2 fields. The cancellous bone in the marrow cavity of the lumbar vertebral body was evaluated in a ROI that was approximately 0.5 mm away from the end plates and dorsal and ventral cortices.
The bone histomorphometry was performed using an OsteoMeasure software program (OsteoMetrics, Inc., Atlanta, Ga.) interfaced with a Nikon Eclipse E400 light/epifluorescent microscope and video subsystem. All slides were analyzed in a blinded manner. Total tissue area, trabecular bone area, trabecular bone perimeter and osteoclast perimeter and number were measured on 4 μm Goldner's trichrome-stained sections. Percent trabecular bone area, trabecular number, trabecular thickness, trabecular separation, osteoclast perimeter as a percentage of bone surface and osteoclast number per unit of bone surface were then calculated according to standardized formulae. For deriving the dynamic parameters, single-labeled calcein perimeter, double-labeled calcein perimeter and interlabel width (label thickness) were measured on 8 μm unstained sections. Mineralizing surface, mineral apposition rate and bone formation rate-surface, bone and tissue referents were calculated.

Orx rat = assay: Prostate weight in the Orx rat (Example 4); format: in vivo; conditions: Orx rat (Orx decreased prostate weight by 77%); FIG. 3
Source text: as §2

[4] = system: orchidectomized (Orx/Cx) male Sprague-Dawley rats; assay: Compression test of the distal right femur (Example 3); format: in vivo, rat; conditions: Toremifene 5 mg/kg/day; for mechanical strength parameters of the distal femur (maximum load, stiffness, ultimate strength, elastic modulus): Orx rats, 17-β-Estradiol 0.5 mg/kg/day s.c.; for Elastic Modulus / Energy / Maximum Load / Stiffness / Toughness / Ultimate Strength / CSA (cross sectional area): castrated (Cx) rats, n=5, 17-β-estradiol 0.5 mg/kg/day s.c.; for Elastic Modulus / Energy / Maximum Load / Stiffness / Toughness / Ultimate Strength: distal right femur compression; for CSA (cross sectional area): distal right femur specimen
Description: Using a Material Testing System (Model 5501R Instron Corp., Canton, Mass.), two types of mechanical testing were performed on the right femur. The load and extension curves were collected by the machine software (Merlin II, Instron Corp.). All tests were conducted using a 5 kN load cell at a constant loading rate of 6 mm/min. The general applications of the tests were as described in Turner and Burr (Bone, 1993; 14: 595-608) and Ke et al (Bone, 1998; 23, 249-255).
Compression Test of the Distal Femur
A compression test was used to determine the mechanical properties of the distal femur. The distal femur test specimen was obtained by removing a 3 mm segment directly proximal to the distal condyle using a slow speed diamond saw with constant saline irrigation. An electronic caliper was used to measure the average anterior/posterior diameter (a), medial/lateral diameter (b), and height (h) of the bone. The extrinsic parameters, maximal load (Fu), stiffness (S) and energy (W), were obtained from the load and extension curve. The following intrinsic parameters were calculated from the measured values: Cross sectional area (CSA)=(π*a*b)/4; Ultimate Strength (σ)=Fu/CSA; Elastic modulus (E)=S/(CSA/h); Toughness (T)=W/(CSA*h).

[5] = system: orchidectomized rats (ORX); assay: Compression test of the vertebral body (L5) (Example 4); format: in vivo, rat; conditions: for Elastic Modulus / Energy / Maximum Load / Stiffness / Toughness / Ultimate Strength: 12 weeks, vertebral body compression, mean
Description: as §1

[6] = Toremifene 5 mg/kg/d, Estradiol 0.2 mg/kg/d
[7] = week 12, Toremifene 5 and 10 mg/kg/d, Estradiol 0.2 mg/kg/d

Structure (SMILES): C[C@]12CC[C@@H]3c4ccc(O)cc4CC[C@H]3[C@@H]1CC[C@@H]2O [17-β-Estradiol]
- Elastic Modulus [1, 6]: 5149.41 MPa
- Energy [1, 6]: 98.61 mJ
- Maximum Load [1, 6]: 287.22 N
- Stiffness [1, 6]: 986.71 N/mm
- Toughness [1, 6]: 6.85 MJ/m^3
- Ultimate Strength [1, 6]: 172.51 N/mm^2
- Energy ([2]; 0.2 mg/kg/d): 40.07 mJ
- Maximum Load ([2]; 0.2 mg/kg/d): 114.96 N
- Stiffness ([2]; 0.2 mg/kg/d): 209.95 N/mm
- loss of trabecular bone volume at the proximal tibia [3]: very effective in preventing loss of trabecular bone volume
- Orx-induced increase in bone turnover parameters at the proximal tibia [3]: significantly inhibited
- Bone Form Rate, Bone Volume Ref [3, 6]: 42.70 %/yr
- Bone Form. Rate, Bone Surface Ref [3, 6]: 10.63 um^3/um^2/yr
- Bone Formation Rate, Tissue Volume Ref [3, 6]: 3.13 %/yr
- Mineral Apposition Rate [3, 6]: 0.43 um/day
- Mineralizing Surface [3, 6]: 5.31%
- Osteoclast Number/Bone Surface [3, 6]: 3.77 #/mm
- Osteoclast Surface [3, 6]: 6.35%
- Trabecular Bone Volume [3, 6]: 8.26%
- Trabecular Number [3, 6]: 1.75 #/mm
- Trabecular Separation [3, 6]: 572 um
- Trabecular Thickness [3, 6]: 47.11 um
- prostate weight (Orx rat): no effect on prostate weight
- mechanical strength parameters of the distal femur (maximum load, stiffness, ultimate strength, elastic modulus) [4]: statistically significant improvements in these parameter values
- Elastic Modulus [4]: 753.44 MPa
- Energy [4]: 58.28 mJ
- Maximum Load [4]: 613.61 N
- Stiffness [4]: 4842.67 N/mm
- Toughness [4]: 0.98 MJ/m³
- Ultimate Strength [4]: 31.23 N/mm^2
- CSA (cross sectional area) [4]: 19.75 mm^2
- Elastic Modulus ([5]; 0.2 mg/kg/d): 589.03 MPa
- Energy ([5]; 0.2 mg/kg/d): 43.60 mJ
- Maximum Load ([5]; 0.2 mg/kg/d): 298.04 N
- Stiffness ([5]; 0.2 mg/kg/d): 1648.17 N/mm
- Toughness ([5]; 0.2 mg/kg/d): 0.94 MJ/m^3
- Ultimate Strength ([5]; 0.2 mg/kg/d): 25.75 N/mm^2
- ORX-induced decreases in bone strength, compression test of the vertebral body [5, 7]: prevented loss of bone strength due to ORX

Structure (SMILES): CN(C)CCOc1ccc(/C(=C(/CCCl)c2ccccc2)c2ccccc2)cc1 [Toremifene]
- Elastic Modulus [1, 6]: 4505.90 MPa
- Energy [1, 6]: 83.40 mJ
- Maximum Load [1, 6]: 263.54 N
- Stiffness [1, 6]: 944.78 N/mm
- Toughness [1, 6]: 5.67 MJ/m^3
- Ultimate Strength [1, 6]: 150.45 N/mm^2
- Elastic Modulus ([1]; Toremifene 10 mg/kg/d): 4557.46 MPa
- Energy ([1]; Toremifene 10 mg/kg/d): 88.58 mJ
- Maximum Load ([1]; Toremifene 10 mg/kg/d): 272.56 N
- Stiffness ([1]; Toremifene 10 mg/kg/d): 910.47 N/mm
- Toughness ([1]; Toremifene 10 mg/kg/d): 6.16 MJ/m^3
- Ultimate Strength ([1]; Toremifene 10 mg/kg/d): 161.23 N/mm^2
- Energy ([2]; 5 mg/kg/d): 46.53 mJ
- Maximum Load ([2]; 5 mg/kg/d): 116.46 N
- Stiffness ([2]; 5 mg/kg/d): 211.77 N/mm
- Energy ([2]; 10 mg/kg/d): 44.59 mJ
- Maximum Load ([2]; 10 mg/kg/d): 117.50 N
- Stiffness ([2]; 10 mg/kg/d): 211.73 N/mm
- loss of trabecular bone volume at the proximal tibia [3]: very effective in preventing loss of trabecular bone volume
- Orx-induced increase in bone turnover parameters at the proximal tibia [3]: significantly reduced the Orx-induced elevation in bone turnover parameters
- Bone Form Rate, Bone Volume Ref [3, 6]: 58.20 %/yr
- Bone Form. Rate, Bone Surface Ref [3, 6]: 10.78 um^3/um^2/yr
- Bone Formation Rate, Tissue Volume Ref [3, 6]: 2.30 %/yr
- Mineral Apposition Rate [3, 6]: 0.32 um/day
- Mineralizing Surface [3, 6]: 6.67%
- Osteoclast Number/Bone Surface [3, 6]: 3.98 #/mm
- Osteoclast Surface [3, 6]: 6.61%
- Trabecular Bone Volume [3, 6]: 5.33%
- Trabecular Number [3, 6]: 1.30 #/mm
- Trabecular Separation [3, 6]: 837.67 um
- Trabecular Thickness [3, 6]: 41.39 um
- Bone Form Rate, Bone Volume Ref ([3]; Toremifene 10 mg/kg/d): 21.26 %/yr
- Bone Form. Rate, Bone Surface Ref ([3]; Toremifene 10 mg/kg/d): 4.78 um^3/um^2/yr
- Bone Formation Rate, Tissue Volume Ref ([3]; Toremifene 10 mg/kg/d): 2.07 %/yr
- Mineral Apposition Rate ([3]; Toremifene 10 mg/kg/d): 0.34 um/day
- Mineralizing Surface ([3]; Toremifene 10 mg/kg/d): 3.02%
- Osteoclast Number/Bone Surface ([3]; Toremifene 10 mg/kg/d): 3.33 #/mm
- Osteoclast Surface ([3]; Toremifene 10 mg/kg/d): 5.27%
- Trabecular Bone Volume ([3]; Toremifene 10 mg/kg/d): 8.81%
- Trabecular Number ([3]; Toremifene 10 mg/kg/d): 1.85 #/mm
- Trabecular Separation ([3]; Toremifene 10 mg/kg/d): 570.89 um
- Trabecular Thickness ([3]; Toremifene 10 mg/kg/d): 45.54 um
- prostate weight (Orx rat): no effect on prostate weight
- mechanical strength parameters of the distal femur (maximum load, stiffness, ultimate strength, elastic modulus) [4]: improved various parameters to a level that was better than Sham-operated animals
- Elastic Modulus [4]: 579.07 MPa
- Energy [4]: 56.96 mJ
- Maximum Load [4]: 467.01 N
- Stiffness [4]: 3856.71 N/mm
- Toughness [4]: 0.86 MJ/m³
- Ultimate Strength [4]: 22.13 N/mm^2
- CSA (cross sectional area) [4]: 21.30 mm^2
- Elastic Modulus ([5]; 5 mg/kg/d): 446.38 MPa
- Energy ([5]; 5 mg/kg/d): 36.60 mJ
- Maximum Load ([5]; 5 mg/kg/d): 238.19 N
- Stiffness ([5]; 5 mg/kg/d): 1391.70 N/mm
- Toughness ([5]; 5 mg/kg/d): 0.72 MJ/m^3
- Ultimate Strength ([5]; 5 mg/kg/d): 19.08 N/mm^2
- Elastic Modulus ([5]; 10 mg/kg/d): 438.64 MPa
- Energy ([5]; 10 mg/kg/d): 27.02 mJ
- Maximum Load ([5]; 10 mg/kg/d): 206.48 N
- Stiffness ([5]; 10 mg/kg/d): 1255.47 N/mm
- Toughness ([5]; 10 mg/kg/d): 0.59 MJ/m^3
- Ultimate Strength ([5]; 10 mg/kg/d): 18.12 N/mm^2
- ORX-induced decreases in bone strength, compression test of the vertebral body [5, 7]: did not prevent these changes
- ORX-induced decreases in bone strength, compression test of the vertebral body ([5]; week 12, Toremifene at the 10 mg/kg/d dose): may have worsened the changes
